Experimental data reported in ChEMBL document CHEMBL1133371, “Amido-(propyl and allyl)-hydroxybenzamidines: development of achiral inhibitors of factor Xa” (Bioorg Med Chem Lett, 2000).

Tests used:
Prothrombin = Prothrombin (Homo sapiens, UniProt P00734); test: In vitro inhibition of coagulation factor IIa.
Coagulation factor X = Coagulation factor X (Homo sapiens, UniProt P00742); test: In vitro inhibition of coagulation factor Xa.
Serine protease 1 = Serine protease 1 (Homo sapiens, UniProt P07477); test: In vitro inhibition of trypsin.
Chain of Serine protease 1 (P07477 whole entry): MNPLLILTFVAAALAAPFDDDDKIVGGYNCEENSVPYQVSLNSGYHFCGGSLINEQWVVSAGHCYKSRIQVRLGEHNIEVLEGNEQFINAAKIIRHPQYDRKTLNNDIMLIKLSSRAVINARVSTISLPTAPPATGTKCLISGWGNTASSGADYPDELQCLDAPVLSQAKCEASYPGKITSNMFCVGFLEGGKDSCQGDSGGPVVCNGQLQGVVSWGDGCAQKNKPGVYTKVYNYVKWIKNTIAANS

[1] = target: Vitamin K-dependent protein C (Homo sapiens, UniProt P04070); test: Compound was evaluated for the inhibitory activity against Activated protein C
Chain of Vitamin K-dependent protein C (P04070 43-197 limits assumed): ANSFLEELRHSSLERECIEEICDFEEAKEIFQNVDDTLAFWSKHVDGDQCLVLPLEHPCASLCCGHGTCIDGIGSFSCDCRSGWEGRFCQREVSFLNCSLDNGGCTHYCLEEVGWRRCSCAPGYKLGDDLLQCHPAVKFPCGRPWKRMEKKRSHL
Chain of Vitamin K-dependent protein C (P04070 212-461 limits assumed): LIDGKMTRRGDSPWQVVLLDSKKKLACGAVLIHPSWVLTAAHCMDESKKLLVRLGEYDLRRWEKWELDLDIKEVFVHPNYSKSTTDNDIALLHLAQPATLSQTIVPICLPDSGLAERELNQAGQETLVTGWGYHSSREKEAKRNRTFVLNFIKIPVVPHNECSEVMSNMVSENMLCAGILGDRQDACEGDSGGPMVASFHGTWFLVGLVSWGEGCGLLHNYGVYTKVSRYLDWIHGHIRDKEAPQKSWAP

Plasminogen = Plasminogen (Homo sapiens, UniProt P00747); test: Compound was tested for its inhibitory activity against Plasmin
Chain of Plasminogen (P00747 97-580 limits assumed): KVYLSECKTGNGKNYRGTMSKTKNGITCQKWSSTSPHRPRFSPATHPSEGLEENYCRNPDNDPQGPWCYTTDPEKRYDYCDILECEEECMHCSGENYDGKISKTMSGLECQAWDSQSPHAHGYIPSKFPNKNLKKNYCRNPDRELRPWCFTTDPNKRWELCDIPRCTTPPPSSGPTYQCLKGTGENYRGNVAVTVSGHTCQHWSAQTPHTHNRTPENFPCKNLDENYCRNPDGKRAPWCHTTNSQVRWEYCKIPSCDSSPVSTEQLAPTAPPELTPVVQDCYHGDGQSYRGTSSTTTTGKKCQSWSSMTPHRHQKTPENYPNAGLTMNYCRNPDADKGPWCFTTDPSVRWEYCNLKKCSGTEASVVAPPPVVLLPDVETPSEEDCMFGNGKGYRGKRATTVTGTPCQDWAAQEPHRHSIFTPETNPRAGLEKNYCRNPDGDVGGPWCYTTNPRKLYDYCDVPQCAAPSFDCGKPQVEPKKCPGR
Chain of Plasminogen (P00747 581-810 limits assumed): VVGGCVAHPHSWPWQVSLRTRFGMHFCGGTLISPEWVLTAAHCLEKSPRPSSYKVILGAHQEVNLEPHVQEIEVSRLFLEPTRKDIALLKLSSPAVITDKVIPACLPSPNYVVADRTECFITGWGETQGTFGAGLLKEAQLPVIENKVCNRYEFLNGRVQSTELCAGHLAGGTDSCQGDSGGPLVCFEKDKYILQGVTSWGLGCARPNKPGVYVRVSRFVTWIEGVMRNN

[2] = target: Tissue-type plasminogen activator (Homo sapiens, UniProt P00750); test: Compound was tested for its inhibitory activity against tissue plasminogen activator
Chain of Tissue-type plasminogen activator (P00750 whole entry): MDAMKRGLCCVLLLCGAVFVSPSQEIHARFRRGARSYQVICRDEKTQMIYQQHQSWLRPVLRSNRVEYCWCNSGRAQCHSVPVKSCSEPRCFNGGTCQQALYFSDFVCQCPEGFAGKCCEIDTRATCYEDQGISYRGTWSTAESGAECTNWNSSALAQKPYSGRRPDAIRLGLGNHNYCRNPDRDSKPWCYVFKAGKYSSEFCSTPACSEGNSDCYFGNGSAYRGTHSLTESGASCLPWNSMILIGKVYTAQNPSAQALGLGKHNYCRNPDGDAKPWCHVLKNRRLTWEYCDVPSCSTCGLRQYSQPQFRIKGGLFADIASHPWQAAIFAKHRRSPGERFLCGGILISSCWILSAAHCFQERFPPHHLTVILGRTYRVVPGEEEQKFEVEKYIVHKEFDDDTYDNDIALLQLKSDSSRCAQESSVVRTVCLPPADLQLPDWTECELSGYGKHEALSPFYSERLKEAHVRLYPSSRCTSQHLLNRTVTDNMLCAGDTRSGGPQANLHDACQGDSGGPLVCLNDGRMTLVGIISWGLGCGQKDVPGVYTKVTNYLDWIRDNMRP

Homo sapiens = organism: Homo sapiens; test: Ability to prolong the activated partial thromboplastin time (APTT) in plasma from human; format: functional, cell-free
Rattus norvegicus = organism: Rattus norvegicus; test: Ability to prolong the activated partial thromboplastin time (APTT) in plasma from rat
Canis lupus familiaris = organism: Canis lupus familiaris; test: Ability to prolong the activated partial thromboplastin time (APTT) in plasma from dog
Oryctolagus cuniculus = organism: Oryctolagus cuniculus; test: Ability to prolong the activated partial thromboplastin time (APTT) in plasma from rabbit

Chain of Coagulation factor X (P00742 41-179 limits assumed): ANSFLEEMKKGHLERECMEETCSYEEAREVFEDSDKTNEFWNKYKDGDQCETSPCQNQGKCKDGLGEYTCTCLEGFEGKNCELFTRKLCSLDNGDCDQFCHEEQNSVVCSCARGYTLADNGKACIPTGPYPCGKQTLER
Chain of Coagulation factor X (P00742 235-488 limits assumed): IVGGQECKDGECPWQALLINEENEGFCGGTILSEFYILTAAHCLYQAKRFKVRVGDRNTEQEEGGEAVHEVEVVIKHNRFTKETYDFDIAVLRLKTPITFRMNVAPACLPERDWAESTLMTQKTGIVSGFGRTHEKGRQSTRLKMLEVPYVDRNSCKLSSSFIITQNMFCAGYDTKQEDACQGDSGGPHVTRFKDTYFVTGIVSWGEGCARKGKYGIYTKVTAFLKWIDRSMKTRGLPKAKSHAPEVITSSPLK

| Compound | Ki (Prothrombin) [nM] | Ki (Coagulation factor X) [nM] | Ki (Serine protease 1) [nM] | also measured |
| --- | --- | --- | --- | --- |
| N=C(N)c1ccc(O)c(CCCNC(=O)c2ccc(-c3cccnc3)cc2)c1 | > 4000 | 38 | 1900 |  |
| N=C(N)c1ccc(O)c(/C=C/CNC(=O)c2cc3nnc(O)cc3s2)c1 | > 4000 | 184 | 1400 |  |
| CC(C)(C)c1ccc(C(=O)NC/C=C/c2cc(C(=N)N)ccc2O)cc1 | 3200 | 61 | 2300 |  |
| N=C(N)c1ccc(O)c(/C=C/CNC(=O)c2ccc(-c3cccc(S(N)(=O)=O)c3)cc2)c1 | > 4000 | 9 | 240 |  |
| N=C(N)c1ccc(O)c(/C=C/CNC(=O)c2ccc(-c3ccccc3S(N)(=O)=O)cc2)c1 | > 4000 | 2 | 1500 |  |
| N=C(N)c1cccc(CCCNC(=O)c2ccc(-c3ccccc3)cc2)c1 |  | 1000 |  |  |
| N=C(N)c1ccc(O)c(CCCNC(=O)c2ccc(-c3ccccc3)cc2)c1 | > 4000 | 88 | > 2900 |  |
| N=C(N)c1ccc(O)c(CCCNC(=O)c2ccc(-c3c[nH]cn3)cc2)c1 | > 4000 | 254 | ~2900 |  |
| N=C(N)c1ccc(O)c(/C=C/CNC(=O)c2ccc(-c3ccc(C(N)=O)cc3)cc2)c1 | 2900 | 20 | 1400 |  |
| N=C(N)c1ccc(O)c(/C=C/CNC(=O)c2ccc(-c3ccccn3)s2)c1 | > 4000 | 37 | 1400 |  |
| N=C(N)c1ccc(O)c(CCCNC(=O)c2ccc(-c3cccc(C(N)=O)c3)cc2)c1 | > 4000 | 7 | > 2900 | Ki [1]: 15000 nM; Ki (Plasminogen): 3500 nM; Ki [2]: > 8700 nM |
| N=C(N)c1ccc(O)c(CCCNC(=O)c2ccc(-c3ccccn3)s2)c1 | > 4000 | 131 | > 2900 |  |
| CC(C)(C)c1ccc(C(=O)NCCCc2cc(C(=N)N)ccc2O)cc1 | > 4000 | 59 | 2200 |  |
| COC(=O)[C@H](Cc1cccc(C(=N)N)c1)[C@@H](C)NC(=O)c1ccc(-c2ccccc2)cc1 |  | 5 |  |  |
| N=C(N)c1ccc(O)c(/C=C/CNC(=O)c2ccc(-c3cccc(C(N)=O)c3)cc2)c1 | > 4000 | 5 | > 2900 |  |
| N=C(N)c1ccc(O)c(/C=C/CNC(=O)c2ccc(-c3ccc(S(N)(=O)=O)cc3)cc2)c1 | > 4000 | 12 | 1600 |  |
| N=C(N)c1ccc(O)c(/C=C/CNC(=O)c2ccc(-c3c[nH]cn3)cc2)c1 | > 4000 | 19 | 1800 |  |
| N=C(N)c1ccc(O)c(/C=C/CNC(=O)c2ccc(-c3ccccc3)cc2)c1 | > 4000 | 51 | > 2900 |  |
| N=C(N)c1ccc(O)c(CCCNC(=O)c2ccc(-c3ncc[nH]3)cc2)c1 | > 4000 | 58 | ~2900 |  |
| N=C(N)c1ccc(O)c(CCCNC(=O)c2cc3ccc(Cl)cc3s2)c1 | ~4000 | 181 | > 2900 |  |
| N=C(N)c1ccc(O)c(/C=C/CNC(=O)c2ccc(-c3ccnc(C(N)=O)c3)cc2)c1 | > 4000 | 0.75 | 2200 | Ki [1]: ~18500 nM; Ki (Plasminogen): > 7300 nM; Ki [2]: 7700 nM; Concentration (Homo sapiens): 0.87 µM; Concentration (Rattus norvegicus): 1.7 µM; Concentration (Canis lupus familiaris): 0.99 µM; Concentration (Oryctolagus cuniculus): 0.51 µM |
| N=C(N)c1ccc(O)c(/C=C/CNC(=O)c2ccc(-c3ncc[nH]3)cc2)c1 | > 4000 | 128 | 1400 |  |
| COC(=O)[C@H](Cc1cccc(C(=N)N)c1)[C@@H](C)NC(=O)c1ccc(-c2cccc(C(N)=O)c2)cc1 |  | 0.5 |  | Ki [1]: > 18500 nM; Ki (Plasminogen): 140 nM; Ki [2]: > 8700 nM |
